The text below walks through data of patent publication US20240215577A1, “FUNGICIDAL PYRIDONES” (FMC Corporation, priority 2021, published 2024).

Common to all, as to type: in vivo
Assay [1] relates to Puccinia recondita f. sp. tritici. The assay is described as follows: Test B: wheat leaf rust, preventive spray on wheat seedlings. The following applies: 50 ppm, 100 = 100% disease control, 0 = no control; for pest or weed control at 50 ppm: Puccinia recondita, read-out: Test B disease control rating. The text has this: (§1) General protocol for preparing test suspensions for Tests A-F: the test compounds were first dissolved in acetone in an amount equal to 3% of the final volume and then suspended at the desired concentration (in ppm) in acetone and purified water (50/50 mix by volume) containing 250 ppm of the surfactant PEG400 (polyhydric alcohol esters). The resulting test suspensions were then used in Tests A-F.
The test solution was sprayed to the point of run-off on wheat seedlings. The following day the seedlings were inoculated with a spore suspension of Puccinia recondita f. sp. tritici (the causal agent of wheat leaf rust) and incubated in a saturated atmosphere at 20° C. for 24 h, and then moved to a growth chamber at 20° C. for 7 days, after which time visual disease ratings were made.
(§2) A rating of 100 indicates 100% disease control and a rating of 0 indicates no disease control (relative to the controls). A dash (-) indicates the compound was not tested.

The test system of another assay is Botrytis cinerea. Kind of assay: Test E: tomato Botrytis, preventive spray on tomato seedlings. The following applies: 50 ppm, 100 = 100% disease control, 0 = no control; for pest or weed control at 50 ppm: Botrytis cinerea, read-out: Test E disease control rating.
Excerpt: as §1
The test suspension was sprayed to the point of run-off on tomato seedlings. The following day the seedlings were inoculated with a spore suspension of Botrytis cinerea (the causal agent of tomato Botrytis) and incubated in a saturated atmosphere at 20° C. for 48 h, and then moved to a growth chamber at 24° C. for 3 days, after which time visual disease ratings were made.
as §2

For another assay, the system named is Zymoseptoria tritici. The assay is described as follows: Test A: wheat leaf blotch, preventive spray on wheat seedlings. The conditions noted are these: 50 ppm, 100 = 100% disease control, 0 = no control; for pest or weed control at 50 ppm: Zymoseptoria tritici, read-out: Test A disease control rating.
Excerpt: as §1
The test solution was sprayed to the point of run-off on wheat seedlings. The following day the seedlings were inoculated with a spore suspension of Zymoseptoria tritici (the causal agent of wheat leaf blotch) and incubated in a saturated atmosphere at 24° C. for 48 h, and then moved to a growth chamber at 20° C. for 17 days, after which time disease ratings were made.
as §2

The next assay concerns Phakopsora pachyrhizi. Kind of assay: Test D: Asian soybean rust, preventive spray on soybean seedlings. The conditions noted are these: 50 ppm, 100 = 100% disease control, 0 = no control; for pest or weed control at 50 ppm: Phakopsora pachyrhizi, 216 h, read-out: Test D disease control rating.
Excerpt: as §1
The test solution was sprayed to the point of run-off on soybean seedlings. The following day the seedlings were inoculated with a spore suspension of Phakopsora pachyrhizi (the causal agent of Asian soybean rust) and incubated in a saturated atmosphere at 22° C. for 24 h and then moved to a growth chamber at 22° C. for 8 days, after which time visual disease ratings were made.
as §2

The next assay relates to Alternaria solani. The assay is described as follows: Test F: tomato early blight, preventive spray on tomato seedlings. The conditions noted are these: 50 ppm, 100 = 100% disease control, 0 = no control; for pest or weed control at 50 ppm: Alternaria solani, read-out: Test F disease control rating.
Excerpt: as §1
The test suspension was sprayed to the point of run-off on tomato seedlings. The following day the seedlings were inoculated with a spore suspension of Alternaria solani (the causal agent of tomato early blight) and incubated in a saturated atmosphere at 27° C. for 48 h, and then moved to a growth chamber at 20° C. for 3 days, after which time visual disease ratings were made.
as §2

In assay [2] the test system is Blumeria graminis f. sp. tritici. Kind of assay: Test C: wheat powdery mildew, preventive spray on wheat seedlings. The following applies: 50 ppm, 100 = 100% disease control, 0 = no control; for pest or weed control at 50 ppm: Blumeria graminis, read-out: Test C disease control rating.
Excerpt: as §1
The test suspension was sprayed to the point of run-off on wheat seedlings. The following day the seedlings were inoculated with a spore dust of Blumeria graminis f. sp. tritici, (also known as Eysiphe graminis f. sp. tritici, the causal agent of wheat powdery mildew) and incubated in a growth chamber at 20° C. for 8 days, after which time visual disease ratings were made.
as §2

Turning to `COc1cc(-c2cn(C)c(=O)c(Cl)c2-c2ccc(F)cc2F)ccc1Br` [Compound 21], in assay [1], the “Test B disease control rating” value was determined as 96%. The “Test E disease control rating” value in the assay on Botrytis cinerea worked out at 94%. Also, the “Test A disease control rating” value in the assay with Zymoseptoria tritici is 70%. For the same compound, the “Test D disease control rating” value with Phakopsora pachyrhizi is recorded as 0%. The “Test F disease control rating” value in the assay on Alternaria solani is reported as 91%. In assay [2], the “Test C disease control rating” value came to 0%.

As to `COc1cc(OC)c(Cl)c(-c2cn(OC)c(=O)c(Cl)c2-c2ccc(F)cc2Cl)c1` [Compound 22, 3-chloro-4-(2-chloro-4-fluorophenyl)-5-(2-chloro-3,5-dimethoxyphenyl)-1-methoxy-2(1H)-pyridinone], the pest or weed control at 50 ppm in assay [1] amounted to 100%; with Botrytis cinerea, 98%; in the assay on Zymoseptoria tritici it was 99%; with Phakopsora pachyrhizi, 97%; with Alternaria solani, 99%; in assay [2], 76%.

Regarding `CCc1c(-c2ccc(F)cc2Cl)c(-c2cc(F)ccc2Cl)cn(C)c1=O` [Compound 23], in assay [1], the “Test B disease control rating” value worked out at 100%. In addition, the “Test E disease control rating” value in the assay on Botrytis cinerea turned out to be 69%. The “Test A disease control rating” value in the assay on Zymoseptoria tritici worked out at 100%. Further, the “Test D disease control rating” value in the assay on Phakopsora pachyrhizi was determined as 0%. The “Test F disease control rating” value in the assay on Alternaria solani was 83%. For the same compound, the “Test C disease control rating” value in assay [2] stood at 99%.

As for `Cn1cc(-c2cc(F)ccc2F)c(-c2ccc(F)cc2Cl)c(Cl)c1=O` [Compound 24], the “Test B disease control rating” value in assay [1] was determined as 96%. Further, in the assay with Botrytis cinerea, the “Test E disease control rating” value is recorded as 85%. Besides, in the assay on Zymoseptoria tritici, the “Test A disease control rating” value is on record as 96%. Further, in the assay on Phakopsora pachyrhizi, the “Test D disease control rating” value stood at 0%. Besides, the “Test F disease control rating” value in the assay on Alternaria solani stood at 0%. Moreover, in assay [2], the “Test C disease control rating” value turned out to be 0%.

On to `COc1cc(OC)cc(-c2cn(C)c(=O)c(Cl)c2-c2ccc(F)cc2F)c1` [Compound 25], for which, in assay [1], the “Test B disease control rating” value is reported as 100%. The “Test E disease control rating” value with Botrytis cinerea came to 82%. The “Test A disease control rating” value in the assay with Zymoseptoria tritici came to 100%. The “Test D disease control rating” value in the assay with Phakopsora pachyrhizi was found to be 84%. For the same compound, the “Test F disease control rating” value with Alternaria solani was 99%. Besides, the “Test C disease control rating” value in assay [2] came out at 0%.

With `Cn1cc(-c2cc(F)c(F)cc2F)c(-c2ccc(F)cc2Cl)c(Cl)c1=O` [Compound 26], the “Test B disease control rating” value in assay [1] turned out to be 86%. For the same compound, the “Test E disease control rating” value with Botrytis cinerea is given as 83%. In addition, the “Test A disease control rating” value with Zymoseptoria tritici is on record as 99%. Besides, in the assay with Phakopsora pachyrhizi, the “Test D disease control rating” value is recorded as 0%. For the same compound, the “Test F disease control rating” value with Alternaria solani was determined as 0%. Also, the “Test C disease control rating” value in assay [2] was determined as 0%.

As to `Cn1cc(-c2ccccc2C(F)(F)F)c(-c2ccc(F)cc2Cl)c(Cl)c1=O` [Compound 27], in assay [1], the “Test B disease control rating” value was 100%. Moreover, the “Test E disease control rating” value with Botrytis cinerea worked out at 58%. Besides, in the assay on Zymoseptoria tritici, the “Test A disease control rating” value is 98%. Besides, in the assay with Phakopsora pachyrhizi, the “Test D disease control rating” value came to 25%. Also, in the assay on Alternaria solani, the “Test F disease control rating” value came out at 0%. Also, the “Test C disease control rating” value in assay [2] came out at 0%.

Take `COc1ccc(F)c(-c2cn(C)c(=O)c(Cl)c2-c2ccc(F)cc2Cl)c1` [Compound 28]: the “Test B disease control rating” value in assay [1] was determined as 100%. In the assay with Botrytis cinerea, the “Test E disease control rating” value worked out at 98%. In the assay on Zymoseptoria tritici, the “Test A disease control rating” value turned out to be 100%. Moreover, the “Test D disease control rating” value in the assay on Phakopsora pachyrhizi is given as 87%. Further, the “Test F disease control rating” value in the assay on Alternaria solani was found to be 99%. The “Test C disease control rating” value in assay [2] amounted to 97%.

For `COc1ccc(Cl)c(-c2cn(C)c(=O)cc2-c2ccc(F)cc2Cl)c1` [Compound 31], in assay [1], the “Test B disease control rating” value is on record as 96%. Moreover, in the assay on Botrytis cinerea, the “Test E disease control rating” value is on record as 99%. For the same compound, the “Test A disease control rating” value in the assay with Zymoseptoria tritici was 96%. In addition, the “Test D disease control rating” value in the assay with Phakopsora pachyrhizi worked out at 0%. For the same compound, in the assay on Alternaria solani, the “Test F disease control rating” value was determined as 0%. In addition, the “Test C disease control rating” value in assay [2] is 0%.

In the case of `COc1ccc(Cl)c(-c2cn(C)c(=O)c(Cl)c2-c2ccc(F)cc2Cl)c1` [Compound 32, 3-chloro-4-(2-chloro-4-fluorophenyl)-5-(2-chloro-5-methoxyphenyl)-1-methyl-2(1H)-pyridinone], the pest or weed control at 50 ppm came out at 100% in assay [1]; 100% with Botrytis cinerea; 100% in the assay with Zymoseptoria tritici; 99% in the assay on Phakopsora pachyrhizi; 100% in the assay on Alternaria solani; 99% in assay [2].

Consider `COc1ccc(Cl)c(-c2cn(C)c(=O)c(Br)c2-c2ccc(F)cc2Cl)c1` [Compound 33, 3-bromo-4-(2-chloro-4-fluorophenyl)-5-(2-chloro-5-methoxyphenyl)-1-methyl-2(1H)-pyridinone], for which the pest or weed control at 50 ppm in assay [1] stood at 100%; in the assay on Botrytis cinerea it was 100%; in the assay on Zymoseptoria tritici, 100%; with Phakopsora pachyrhizi it was 89%; in the assay on Alternaria solani, 100%; in assay [2] it was 99%.

As for `Cn1cc(-c2cc(F)ccc2Cl)c(-c2ccc(F)cc2Cl)cc1=O` [Compound 34], the “Test B disease control rating” value in assay [1] stood at 68%. In the assay on Botrytis cinerea, the “Test E disease control rating” value worked out at 98%. The “Test A disease control rating” value in the assay on Zymoseptoria tritici was 100%. For the same compound, in the assay on Phakopsora pachyrhizi, the “Test D disease control rating” value turned out to be 59%. Further, the “Test F disease control rating” value with Alternaria solani turned out to be 0%. The “Test C disease control rating” value in assay [2] was found to be 48%.

With `COc1cc(OC)c(Cl)c(-c2cn(OCC#N)c(=O)c(Cl)c2-c2ccc(F)cc2Cl)c1` [Compound 35], the “Test B disease control rating” value in assay [1] came out at 100%. Also, the “Test E disease control rating” value in the assay with Botrytis cinerea is reported as 94%. For the same compound, the “Test A disease control rating” value with Zymoseptoria tritici is 84%. Besides, in the assay on Phakopsora pachyrhizi, the “Test D disease control rating” value amounted to 92%. In the assay on Alternaria solani, the “Test F disease control rating” value amounted to 0%. Further, the “Test C disease control rating” value in assay [2] was 73%.

Regarding `C#CCOn1cc(-c2cc(OC)cc(OC)c2Cl)c(-c2ccc(F)cc2Cl)c(Cl)c1=O` [Compound 36, 3-chloro-5-(2-chloro-3,5-dimethoxyphenyl)-4-(2-chloro-4-fluorophenyl)-1-(2-propynyloxy)-2(1H)-pyridinone], the pest or weed control at 50 ppm in assay [1] was found to be 99%; in the assay with Botrytis cinerea, 96%; in the assay on Zymoseptoria tritici, 98%; in the assay on Phakopsora pachyrhizi it was 96%; in the assay on Alternaria solani, 0%; in assay [2] it was 0%.

`COc1cc(OC)c(Cl)c(-c2cn(OCC(F)F)c(=O)c(Cl)c2-c2ccc(F)cc2Cl)c1` [Compound 37]: in assay [1], the “Test B disease control rating” value amounted to 99%. For the same compound, in the assay with Botrytis cinerea, the “Test E disease control rating” value was found to be 88%. In the assay with Zymoseptoria tritici, the “Test A disease control rating” value came to 68%. The “Test D disease control rating” value in the assay on Phakopsora pachyrhizi is 87%. The “Test F disease control rating” value with Alternaria solani came out at 0%. Further, in assay [2], the “Test C disease control rating” value was found to be 0%.

With `COc1cc(OC)c(Cl)c(-c2cn(OC(F)F)c(=O)c(Cl)c2-c2ccc(F)cc2Cl)c1` [Compound 38, 3-chloro-5-(2-chloro-3,5-dimethoxyphenyl)-4-(2-chloro-4-fluorophenyl)-1-(difluoromethoxy)-2(1H)-pyridinone], the pest or weed control at 50 ppm in assay [1] is 100%; in the assay with Botrytis cinerea it was 96%; with Zymoseptoria tritici, 96%; in the assay on Phakopsora pachyrhizi, 75%; with Alternaria solani it was 0%; in assay [2], 73%.

In the case of `COc1cc(OC)c(Cl)c(-c2cn(O)c(=O)c(Cl)c2-c2ccc(F)cc2Cl)c1` [Compound 39, 3-chloro-5-(2-chloro-3,5-dimethoxyphenyl)-4-(2-chloro-4-fluorophenyl)-1-hydroxy-2(1H)-pyridinone], the pest or weed control at 50 ppm stood at 86% in assay [1]; 56% in the assay on Botrytis cinerea; 69% with Zymoseptoria tritici; 77% in the assay on Phakopsora pachyrhizi; 0% in the assay with Alternaria solani; 0% in assay [2].
